The values below come from patent publication US3963756A, “Derivatives of 6-methyl-2H-pyran-2,4(3H)-dione” (Zaidan Hojin Biseibutsu Kagaku Kenkyu Kai, priority 1972, dated 1976).

Series [1] addresses T1, Dopamine β-Hydroxylase (Bos taurus, UniProt P15101).
T1 sequence (P15101 1-610): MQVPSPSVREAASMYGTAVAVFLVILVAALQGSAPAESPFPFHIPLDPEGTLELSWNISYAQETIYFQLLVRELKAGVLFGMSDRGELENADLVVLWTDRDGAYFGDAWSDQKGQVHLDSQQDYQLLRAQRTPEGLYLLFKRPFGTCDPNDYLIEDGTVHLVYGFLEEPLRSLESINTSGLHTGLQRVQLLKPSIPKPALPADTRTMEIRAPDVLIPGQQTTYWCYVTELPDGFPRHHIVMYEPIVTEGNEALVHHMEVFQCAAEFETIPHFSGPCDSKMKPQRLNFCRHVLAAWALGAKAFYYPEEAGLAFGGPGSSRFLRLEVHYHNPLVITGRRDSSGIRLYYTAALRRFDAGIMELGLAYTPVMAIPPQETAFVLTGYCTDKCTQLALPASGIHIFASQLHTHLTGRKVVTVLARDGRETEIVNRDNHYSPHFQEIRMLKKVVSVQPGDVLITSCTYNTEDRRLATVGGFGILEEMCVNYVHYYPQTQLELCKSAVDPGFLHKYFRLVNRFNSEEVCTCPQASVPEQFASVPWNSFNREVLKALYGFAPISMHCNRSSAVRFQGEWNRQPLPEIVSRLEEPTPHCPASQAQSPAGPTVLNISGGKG
In words: Inhibition of dopamine β-hydroxylase (DH). The format is biochemical. The note with it: for inhibition at 200 µg/mL: 200 mcg/cc. An excerpt:
(§1) The new compounds of the present invention have been examined for their biological activities, and their inhibition to tyrosine hydroxylase and dopamine β-hydroxylase are summarized below in Table 2. The details of the test methods used and the close relationship and reliable correlation of biological activities between in vitro and in vivo test results are well documented in the literature, e.g. J. Antibiot. 23: 514 (1970); Biochem. Pharmacol., 19: 35 (1970); and J. Am. Chem. Soc. 93: 1285 (1971). […] The effects of this compound on tyrosine hydroxylase and dopamine β-hydroxylase were also tested by the methods described in the Journal of Antibiotics 23:514 (1970) and Biochem. Pharmacol. 19:35 (1970), respectively.
(§2) The chemical structure of the products [I], solvent for hydrogenation and solvent for recrystallization are summarised in Table 1, and the yields of the products [I] are also shown in Table 1 together with their melting points, elemental analysis data, Inhibition (%) of tyrosine hydroxylase (TH) and Inhibition (%) to dopamine β-hydroxylase (DH) at different concentrations of the products [I] of 100 mcg/cc and 200 mcg/cc.

The nature of series [2]: Toxicity in mice (LD50; 30-day daily dosing). The format is in vivo. The note with it: mouse, in vivo, ip; mice, intraperitoneal injection.
The target of series [3] is T2, Tyrosine Hydroxylase (Bos taurus, UniProt P17289).
T2 sequence (P17289 1-491): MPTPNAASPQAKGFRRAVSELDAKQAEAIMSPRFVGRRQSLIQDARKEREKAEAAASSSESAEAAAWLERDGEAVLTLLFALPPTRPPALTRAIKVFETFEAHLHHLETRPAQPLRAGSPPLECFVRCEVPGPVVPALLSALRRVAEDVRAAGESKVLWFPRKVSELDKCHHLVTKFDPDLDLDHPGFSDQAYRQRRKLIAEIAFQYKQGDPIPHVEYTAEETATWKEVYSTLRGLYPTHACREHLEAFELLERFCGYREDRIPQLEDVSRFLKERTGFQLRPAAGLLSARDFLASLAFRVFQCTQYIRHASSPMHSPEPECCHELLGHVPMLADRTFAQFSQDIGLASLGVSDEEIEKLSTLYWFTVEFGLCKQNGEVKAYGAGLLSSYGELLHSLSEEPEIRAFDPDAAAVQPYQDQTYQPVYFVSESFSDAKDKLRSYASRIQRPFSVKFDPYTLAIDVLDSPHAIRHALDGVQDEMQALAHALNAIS
In words: Inhibition of tyrosine hydroxylase (TH). The format is biochemical. The note with it: for inhibition at 200 µg/mL: 200 mcg/cc.
Text: as §1, §2

The test system of series [4] is mice. In words: Toxicity in mice (LD50; 30-day daily dosing). The format is in vivo. The following applies: 160, 40 and 10 mg/kg orally or intraperitoneally daily to mice for 30 days.
The test system of series [5] is mice and rats. In words: Sleeping / sedative effect in mice and rats. Type of series: in vivo. The following applies: injection of 200 mg/kg to mice and rats. The source says:
(§3) Hydroxylation of tyrosine is the rate-limiting step of norepinephrine biosynthesis. Therefore, inhibition of tyrosine hydroxylase results in inhibition of norepinephrine synthesis in vivo which results in lowering the blood pressure. […] Okamoto, of the Medical School, University of Kyoto, Japan, and described in "Journal of Antibiotics" 23: 514 (1970).

The subject of series [6] is rat. Kind of series: Blood pressure in rats. The note with it: for systolic blood pressure lowered to: 6.25 mg/kg i.p. Type of series: in vivo. Here is the method: as §3
When 6.25 mg/kg was intraperitoneally injected to a rat of 185 mm. systolic blood pressure and another rat of 188 mm., the blood pressure was then lowered to 115-145 mm. and 138-166 mm. respectively during 1-22 hours after the injection. When […]. was intraperitoneally injected to a rat of 190 mm. systolic blood pressure, the pressure was reduced to 146-162 mm. during 1-22 hours after the injection. […] It caused 20-30% reduction of blood pressure which continued for about 5 days after the last oral administration.

Series [7] concerns genetically hypertensive rats. In words: Blood pressure in genetically hypertensive rats. The format is in vivo. The following applies: genetically hypertensive rats (Okamoto).
Text: as §3

A short description of series [8]: Lowering of blood pressure (general statements). More on the design: species or system mammals. The note with it: in vivo.
Series [9] concerns bacteria and fungi. The note with it: Chemical Abstracts 50, 980e; cited from earlier work.
The mark [10] stands for this setting: oral daily for three days, 3.1, 6.25, 12.5, 25 mg/kg.

For the compound `COc1ccccc1CCC(=O)C1C(=O)C=C(C)OC1=O` (centres unmarked) [3-(2-methoxyhydrocinnamoyl)-6-methyl-2H-pyran-2,4(3H)-dione] [listing 1 of 2 here], in [1], the IC50 (commonly the concentration needed to halve the response being measured) was 1910 nM. The LD50 (as a rule, the dose at which mortality reaches 50%) in series [2] worked out at 1200 mg/kg.
On to `COc1ccccc1CCC(=O)C1C(=O)C=C(C)OC1=O` (centres unmarked) [3-(2-methoxyhydrocinnamoyl)-6-methyl-2H-pyran-2,4(3H)-dione] [listing 2 of 2 here], for which the “inhibition % to tyrosine hydroxylase” value amounted to 10% in series [3] (12.5 mcg/cc), 18% in series [3] (25 mcg/cc), 22% in series [3] (50 mcg/cc) and 32% in series [3] (100 mcg/cc). Also, the usual toxic signs entry in series [4] is on record as “none of the usual toxic signs appeared except a decrease in the blood pressure”. The “sleeping and sedative effect” value in [5] was “did not cause sleeping and a sedative effect was not recognized”. Further, in series [6] (setting [10]), the “duration of blood pressure reduction after the last oral administration” value is recorded as “about 5 days”. The “reduction of blood pressure” value in series [6] (setting [10]) is listed as 20-30%. Moreover, in [6] (setting [10]), the “reduction of blood pressure (in words)” value is listed as “marked reduction of blood pressure”. The “systolic blood pressure lowered to” value in [6] (rat of 185 mm systolic, during 1-22 hours after injection) is 115-145 mm; in [6] (rat of 188 mm systolic, during 1-22 hours after injection) it was 138-166 mm. In addition, the “systolic blood pressure reduced to” value in series [6] (rat of 190 mm systolic, 12.5 mm/kg (so in the source) i.p., during 1-22 hours after injection) is recorded as 146-162 mm. The “systolic and diastolic blood pressure” value in series [6] (rats, daily injection or daily oral administration, 3.5 mg/kg) was “lowered both the systolic and the diastolic blood pressure”. Also, in series [7], the hypotensive effect result is recorded as “even more markedly”.
As for `COc1ccc(CCC(=O)C2C(=O)C=C(C)OC2=O)cc1OC` (centres unmarked) [3-(3,4-dimethoxyhydrocinnamoyl)-6-methyl-2H-pyran-2,4(3H)-dione, reference compound], 100 µg/mL produced 61.3% inhibition in [3] (100 mcg/cc). Further, the inhibition (in general, the drop in the measured response relative to a control, in per cent) at 200 µg/mL was found to be 72.5% in [3] and 32.5% in [1]. For the same compound, the “blood pressure reducing (hypotensive) activity, in words” value in [8] was “active in reducing blood pressure”.
For `CC1=CC(=O)C(C(=O)CCc2ccccc2)C(=O)O1` (centres unmarked) [3-hydrocinnamoyl-6-methyl-2H-pyran-2,4(3H)-dione, reference compound], the inhibition at 100 µg/mL in [3] (100 mcg/cc) was 49.7%. The compound further had an inhibition at 200 µg/mL in series [3] of 52.8%. Also, the “inhibition to DH” value in [1] (100 mcg/cc) came out at 100%. Moreover, in series [8], the “blood pressure reducing (hypotensive) activity, in words” value was “active in reducing blood pressure”. Besides, the “antibacterial and antifungal activity” value in [9] was “weak antibacterial and antifungal activity”.
With `CC1=CC(=O)C(C(=O)CCc2c(O)ccc3ccccc23)C(=O)O1` (centres unmarked) [Example 37], in series [3] (100 mcg/cc), the inhibition at 100 µg/mL is 41.8%. The inhibition at 200 µg/mL in series [3] came to 57.2%; in series [1], 44.7%.
In the case of `CC1=CC(=O)C(C(=O)CCc2cccs2)C(=O)O1` (centres unmarked) [Example 38], the inhibition at 100 µg/mL in series [3] (100 mcg/cc) was 52.3%. In series [1], this compound yielded an inhibition at 200 µg/mL of 30.3%.
For `CC1=CC(=O)C(C(=O)CCc2ccc[nH]2)C(=O)O1` (centres unmarked) [Example 39], in that order: 30.9% and 25.1%.
